Test results reported in ChEMBL document CHEMBL1134442, “Novel selective PDE4 inhibitors. 2. Synthesis and structure-activity relationships of 4-aryl-substituted cis-tetra- and cis-hexahydrophthalazinones” (J Med Chem, 2001).

Assays:
Phosphodiesterase 3 = Phosphodiesterase 3 (Homo sapiens, UniProt Q14432+Q13370); assay: Inhibitory activity of the against phosphodiesterase 3 (PDE3); No significant inhibitory activity at pIC50; assay type: protein assay
Phosphodiesterase 4 = Phosphodiesterase 4 (Homo sapiens, UniProt P27815+Q08499+Q07343+Q08493); assay: Inhibition of phosphodiesterase 4 (PDE4) in human neutrophils; assay type: protein assay

| SMILES | pIC50 (Phosphodiesterase 3) | pIC50 (Phosphodiesterase 4) |
| --- | --- | --- |
| COc1ccc(C2=NN(C3CCCCCC3)C(=O)C3CC=CCC23)cc1OCCCCCCOc1ccc(C(=O)O)cc1 (stereo not given) | < 5.5 | 8.7 |
| COc1ccc(C2=NN(C3CCCCCC3)C(=O)C3CC=CCC23)cc1OC1CCCC1 (stereo not given) | < 5.5 | 8.9 |
| COc1ccc(C2=NN(C3CCCCCC3)C(=O)C3CC=CCC23)cc1OCCCCOc1ccc(-c2nn[nH]n2)cc1 (stereo not given) | < 5.5 | 9.2 |
| COc1ccc(C2=NN(C3CCCCCC3)C(=O)C3CC=CCC23)cc1OCCCCOc1ccc(C#N)cc1 (stereo not given) | < 5.5 | 8.6 |
| COc1ccc(C2=NN(C3CCCCCC3)C(=O)C3CC=CCC23)c2c1OC1(CCCC1)C2 (stereo not given) | < 5.5 | 9.2 |
| COc1ccc(C2=NN(C3CCCCCC3)C(=O)C3CC=CCC23)cc1Cl (stereo not given) | < 5.5 | 8 |
| COc1ccc(C2=NN(C3CCCCCC3)C(=O)C3CC=CCC23)cc1OCCCCOc1ccc(-n2ccnc2)cc1 (stereo not given) | < 5.5 | 9.7 |
| COc1ccc(C2=NN(C3CCCCCC3)C(=O)C3CC=CCC23)cc1OCCCCCCOc1ccc(C(N)=O)cc1 (stereo not given) | < 5.5 | 9.5 |
| COc1ccc(C2=NN(C3CCCCCC3)C(=O)C3CC=CCC23)c2c1OC(C)(C)C2 (stereo not given) | < 5.5 | 9 |
| COc1ccc(C2=NN(C3CCCCCC3)C(=O)C3CC=CCC23)cc1O (stereo not given) | < 5.5 | 7.4 |
| COc1ccc(C2=NN(C3CCCCCC3)C(=O)C3CC=CCC23)cc1OCCCCOc1ccc(C(=O)O)cc1 (stereo not given) | < 5.5 | 9.5 |
| COc1ccc([C@]2(C#N)CC[C@@H](C(=O)O)CC2)cc1OC1CCCC1 [CILOMILAST] | < 5.5 |  |
| COc1ccc(C2=NN(C3CCCCCC3)C(=O)C3CC=CCC23)cc1OCCCCn1cnc2ncncc21 (stereo not given) | < 5.5 | 7.6 |
| COc1ccc([C@@H]2CNC(=O)C2)cc1OC1CCCC1 [(-)-ROLIPRAM] | < 5.5 |  |
| COc1ccc(C2=NN(C3CCCCCC3)C(=O)C3CC=CCC23)cc1OCCCCn1ccnc1 (stereo not given) | < 5.5 | 8.1 |

Second part, the molecule after the results:

| pIC50 (Phosphodiesterase 3) | pIC50 (Phosphodiesterase 4) | SMILES |
| --- | --- | --- |
| < 5.5 | 9.1 | COc1ccc(C2=NN(C3CCCCCC3)C(=O)C3CC=CCC23)cc1OC (stereo not given) |
| < 5.5 | 8.6 | COc1ccc(C2=NN(Cc3ccccc3)C(=O)C3CCCCC23)c2c1OC1(CCCC1)C2 (stereo not given) |
| < 5.5 | < 5 | O=C1C2CCCCC2C(c2ccccc2)=NN1Cc1ccccc1 (stereo not given) |
| < 5.5 | 5.8 | O=C1C2CCCCC2C(c2ccc3c(c2)OCO3)=NN1Cc1ccccc1 (stereo not given) |
| < 5.5 | 8.3 | COc1ccc(C2=NN(C3CCCCCC3)C(=O)C3CC=CCC23)cc1OCCCCCc1ccccc1 (stereo not given) |
| < 5.5 | < 5 | O=C1C2CCCCC2C(c2cccc(Cl)c2)=NN1Cc1ccccc1 (stereo not given) |
| < 5.5 | 7.4 | COc1ccc(C2=NN(C3CCCCCC3)C(=O)C3CC=CCC23)cc1OCCCCN(C)C (stereo not given) |
| < 5.5 | 7.8 | COc1ccc(C2=NN(C3CCCCCC3)C(=O)C3CC=CCC23)cc1OCCCCC(=O)O (stereo not given) |
| < 5.5 | 5.9 | COc1ccc(C2=NN(Cc3ccccc3)C(=O)C3CCCCC23)cc1 (stereo not given) |
| < 5.5 | 9 | COc1ccc(C2=NN(C3CCCCCC3)C(=O)C3CC=CCC23)cc1OCC1CC1 (stereo not given) |
| < 5.5 | 5.6 | COc1cccc(C2=NN(Cc3ccccc3)C(=O)C3CCCCC23)c1 (stereo not given) |
| < 5.5 | 5.6 | COc1ccc(C2=NN(C3CCCCCC3)C(=O)C3CC=CCC23)cc1OCC(=O)O (stereo not given) |
| < 5.5 | 8.4 | COc1ccc(C2=NN(C3CCCCCC3)C(=O)C3CC=CCC23)cc1OCCO (stereo not given) |
| < 5.5 | 7.8 | CCOc1ccc(C2=NN(Cc3ccccc3)C(=O)C3CCCCC23)cc1OCC (stereo not given) |
| < 5.5 | 8 | COc1ccc(C2=NN(C3CCCCCC3)C(=O)C3CC=CCC23)cc1OCCCCCCOc1ccccc1 (stereo not given) |
| < 5.5 | 8.8 | COc1ccc(C2=NN(C3CCCCCC3)C(=O)C3CC=CCC23)cc1OC(F)F (stereo not given) |
| < 5.5 | 8 | COc1ccc(C2=NN(Cc3ccccc3)C(=O)C3CCCCC23)cc1OC1CCCC1 (stereo not given) |
| < 5.5 | 7.2 | COc1ccc(C2=NN(C3CCCCCC3)C(=O)C3CC=CCC23)cc1OCCN(C)C (stereo not given) |
| < 5.5 | 7.2 | COc1ccc(C2=NN(C3CCCCCC3)C(=O)C3CC=CCC23)cc1OCCCC(=O)O (stereo not given) |
| < 5.5 | 8.1 | COc1ccc(C2=NN(Cc3ccccc3)C(=O)C3CCCCC23)cc1OC (stereo not given) |
| < 5.5 | < 5 | COc1cc(C2=NN(Cc3ccccc3)C(=O)C3CCCCC23)ccc1OC1CCCC1 (stereo not given) |
